# Assay results from ChEMBL document CHEMBL5052856, “Inhibitors of apol1 and methods of using same” (2021).
# Target: Apolipoprotein L1 (Homo sapiens, UniProt O14791)
# Assay: Inhibition of APOL1 G1 variant in human HEK293-T-REx cells measured by Thallium assay
# Type: cell-based
row,SMILES,IC50 [µM]
1,O=C(CC1CC(c2c(-c3ccc(F)cc3)[nH]c3c(F)cc(F)cc23)C1)N[C@@H](CO)C(F)(F)F (stereo not given in full),> 1
2,O=C(NC[C@H]1CC[C@@H](CO)O1)NC[C@H]1C[C@H](c2c(-c3ccc(F)cc3)[nH]c3c(F)cc(F)cc32)C1,> 1
3,C[C@H](NCC1CC(c2c(-c3ccc(F)cc3)[nH]c3c(F)cc(F)cc23)C1)C(N)=O (stereo not given in full),> 1
4,O=C(NC[C@H]1C[C@H](c2c(-c3ccc(F)cc3)[nH]c3c(F)cc(F)cc32)C1)NC(CO)C(F)(F)F (stereo not given in full),> 1
5,CC(C)(NCC1CC(c2c(-c3ccc(F)cc3)[nH]c3c(F)cc(F)cc23)C1)C(N)=O (stereo not given),> 1
6,NC(=O)C(CO)NCC1CC(c2c(-c3ccc(F)cc3)[nH]c3c(F)cc(F)cc23)C1 (stereo not given),0.00025
7,C[C@@H](O)CNC(=O)N(C)CC1CC(c2c(-c3ccc(F)cc3)[nH]c3c(F)cc(F)cc23)C1 (stereo not given in full),> 1
8,CN(CC1CC(c2c(-c3ccc(F)cc3)[nH]c3c(F)cc(F)cc23)C1)C(=O)NCc1cn(C)cn1 (stereo not given),> 1
9,C[C@H](CO)N(C)C(=O)NC[C@H]1C[C@H](c2c(-c3ccc(F)cc3)[nH]c3c(F)cc(F)cc32)C1,> 1
10,CC(CO)N(C)C(=O)NC[C@H]1C[C@H](c2c(-c3ccc(F)cc3)[nH]c3c(F)cc(F)cc32)C1 (stereo not given in full),> 1
11,CN(C)C(=O)CNCC1CC(c2c(-c3ccc(F)cc3)[nH]c3c(F)cc(F)cc23)C1 (stereo not given),0.00025
12,O=C(CC1CC(c2c(-c3ccc(F)cc3)[nH]c3c(F)cc(F)cc23)C1)N[C@H](CO)C(F)(F)F (stereo not given in full),> 1
13,O=C(NC1CC(O)C1)[C@H]1C[C@H](c2c(-c3ccc(F)cc3)[nH]c3c(F)cc(F)cc32)C1 (stereo not given in full),0.00025
14,CN(C(=O)NC[C@H]1C[C@H](c2c(-c3ccc(F)cc3)[nH]c3c(F)cc(F)cc32)C1)C1COCC1O (stereo not given in full),> 1
15,NCCCNC(=O)[C@H]1C[C@H](c2c(-c3ccc(F)cc3)[nH]c3c(F)cc(F)cc32)C1,0.00025
16,O=C(O)CNC(=O)[C@H]1C[C@H](c2c(-c3ccc(F)cc3)[nH]c3c(F)cc(F)cc32)C1,> 1
17,CNC(=O)C(C)NCC1CC(c2c(-c3ccc(F)cc3)[nH]c3c(F)cc(F)cc23)C1 (stereo not given),0.00025
18,CC(C)CC(NCC1CC(c2c(-c3ccc(F)cc3)[nH]c3c(F)cc(F)cc23)C1)C(N)=O (stereo not given),> 1
19,C[C@@H](NCC1CC(c2c(-c3ccc(F)cc3)[nH]c3c(F)cc(F)cc23)C1)C(=O)N(C)C (stereo not given in full),> 1
20,CN1CCC(NC(=O)[C@H]2C[C@H](c3c(-c4ccc(F)cc4)[nH]c4c(F)cc(F)cc43)C2)C1=O (stereo not given in full),< 0.25
21,CN(CC1CC(c2c(-c3ccc(F)cc3)[nH]c3c(F)cc(F)cc23)C1)C(=O)N1CCC1 (stereo not given),> 1
22,O=C(CC1CC(c2c(-c3ccc(F)cc3)[nH]c3c(F)cc(F)cc23)C1)N[C@@H]1CCNC1=O (stereo not given in full),> 1
23,NC(=O)CNC(=O)[C@H]1C[C@H](c2c(-c3ccc(F)cc3)[nH]c3c(F)cc(F)cc32)C1,< 0.25
24,C[C@@H](CO)NC(=O)CC1CC(c2c(-c3ccc(F)cc3)[nH]c3c(F)cc(F)cc23)C1 (stereo not given in full),> 1
25,O=C1NCCC1NC(=O)[C@H]1C[C@H](c2c(-c3ccc(F)cc3)[nH]c3c(F)cc(F)cc32)C1 (stereo not given in full),< 0.25
26,CN1CCN(C(=O)CNCC2CC(c3c(-c4ccc(F)cc4)[nH]c4c(F)cc(F)cc34)C2)CC1 (stereo not given),> 1

# Second part, the compound after the results:
row,IC50 [µM],SMILES
1,> 1,O=C(NCC1(O)COC1)NC[C@H]1C[C@H](c2c(-c3ccc(F)cc3)[nH]c3c(F)cc(F)cc32)C1
2,< 0.25,CNC(=O)CNC[C@H]1C[C@H](c2c(-c3ccc(F)cc3)[nH]c3c(F)cc(F)cc32)C1
3,> 1,CC1(O)CC(NC(=O)NC[C@H]2C[C@H](c3c(-c4ccc(F)cc4)[nH]c4c(F)cc(F)cc43)C2)C1 (stereo not given in full)
4,< 0.25,O=C(CNC[C@H]1C[C@H](c2c(-c3ccc(F)cc3)[nH]c3c(F)cc(F)cc32)C1)NCO
5,> 1,O=C(NCC1(O)CC1)NC[C@H]1C[C@H](c2c(-c3ccc(F)cc3)[nH]c3c(F)cc(F)cc32)C1
6,> 1,O=C(NC[C@H]1C[C@H](c2c(-c3ccc(F)cc3)[nH]c3c(F)cc(F)cc32)C1)NC1CC(O)C1 (stereo not given in full)
7,> 1,O=C(NC[C@H]1C[C@H](c2c(-c3ccc(F)cc3)[nH]c3c(F)cc(F)cc32)C1)NC1(CO)CCOC1 (stereo not given in full)
8,> 1,CC1(C)CC(NC(=O)NC[C@H]2C[C@H](c3c(-c4ccc(F)cc4)[nH]c4c(F)cc(F)cc43)C2)C(=O)O1 (stereo not given in full)
9,> 1,O=C(NC[C@H]1C[C@H](c2c(-c3ccc(F)cc3)[nH]c3c(F)cc(F)cc32)C1)NC1(CO)CC(F)(F)C1
10,> 1,O=C(NC[C@H]1C[C@H](c2c(-c3ccc(F)cc3)[nH]c3c(F)cc(F)cc32)C1)N[C@H]1CC[C@H](O)C1
11,> 1,C[C@@H](CO)NC(=O)NC[C@H]1C[C@H](c2c(-c3ccc(F)cc3)[nH]c3c(F)cc(F)cc32)C1
12,> 1,C[C@]1(NC(=O)NC[C@H]2C[C@H](c3c(-c4ccc(F)cc4)[nH]c4c(F)cc(F)cc43)C2)C[C@@H](O)C1
13,> 1,C[C@H](CO)NC(=O)NC[C@H]1C[C@H](c2c(-c3ccc(F)cc3)[nH]c3c(F)cc(F)cc32)C1

# Test system: Trypanosoma brucei brucei
# Assay: Antitrypanosomal activity against Trypanosoma brucei brucei assessed as trypanosome lysis using recombinant APOL1 protein G1 variant and measured by Alamar blue based fluoresence assay
# Type: functional, organism-based
row,SMILES,IC50 [µM]
1,O=C(NC1CC(O)C1)[C@H]1C[C@H](c2c(-c3ccc(F)cc3)[nH]c3c(F)cc(F)cc32)C1 (stereo not given in full),0.25
2,NCCCNC(=O)[C@H]1C[C@H](c2c(-c3ccc(F)cc3)[nH]c3c(F)cc(F)cc32)C1,< 0.25
3,O=C(O)CNC(=O)[C@H]1C[C@H](c2c(-c3ccc(F)cc3)[nH]c3c(F)cc(F)cc32)C1,> 1
4,CN1CCC(NC(=O)[C@H]2C[C@H](c3c(-c4ccc(F)cc4)[nH]c4c(F)cc(F)cc43)C2)C1=O (stereo not given in full),0.25
5,NC(=O)CNC(=O)[C@H]1C[C@H](c2c(-c3ccc(F)cc3)[nH]c3c(F)cc(F)cc32)C1,< 0.25
6,O=C1NCCC1NC(=O)[C@H]1C[C@H](c2c(-c3ccc(F)cc3)[nH]c3c(F)cc(F)cc32)C1 (stereo not given in full),< 0.25
